After the bases stand the sugars from the 5' end (letter, count) and the backbone: PS all phosphorothioate, else s phosphorothioate and o phosphodiester by linkage. Methylation of C is not given here. e = 2'-O-(2-methoxyethyl) (MOE); k = constrained ethyl (cEt); d = 2'-deoxy (DNA); m = 2'-O-methyl

The target in the data set is HSD17B13. The conditions noted are these: ASO, HepaRG.

On to CATTAAGCTTAGTATA (sugars k3 d10 k3, PS), for which the target mRNA inhibition (1 µM) was 19%.
CATTAATGCCACCCTA (sugars k3 d10 k3, PS) came in with a target mRNA inhibition (1 µM) of 8%.
On the same count and under the same terms, the figure for CATTATAAGCTAACTA (sugars k3 d10 k3, PS) is 39%.
Still for that read-out and setting: the figure for CATTATTCACCACGAT (sugars k3 d10 k3, PS) is 33%; for CATTCGGCTAGGCGCG (sugars k3 d10 k3, PS) it is 46%; for CCAAAAATCAGCCACT (sugars k3 d10 k3, PS) it is 0%.
Turning to CCAAAAATGTCCTAGG (sugars k3 d10 k3, PS), the target mRNA inhibition (1 µM) came to 38%.
On the same count and under the same terms, then CCAACGCAACAGTTTA (sugars k3 d10 k3, PS), with 77%; and CCAACTATGTAATAGG (sugars k3 d10 k3, PS), with 68%; and CCAAGGCCTGAAGTTC (sugars k3 d10 k3, PS), with 20%.
On the same count and under the same terms, then CCAAGGCTTATGAAGT (sugars k3 d10 k3, PS), with 27%.
Still for that read-out and setting: then CCAATATAATCCAAAG (sugars k3 d10 k3, PS), with 28%; and CCAATATGGGATGAGG (sugars k3 d10 k3, PS), with 60%.
The sequence CCAATTATGAATCTGC (sugars k3 d10 k3, PS) came in with a target mRNA inhibition (1 µM) of 61%.
As for CCAATTTAAATCAGGC (sugars k3 d10 k3, PS), the target mRNA inhibition is, setting by setting: (0.02 µM) 0%; (0.078 µM) 17%; (0.313 µM) 52%; (1 µM) 73%; (1.25 µM) 72%; (5 µM) 89%.
CCAGAAAGTTCATTCG (sugars k3 d10 k3, PS): the target mRNA inhibition by setting is: (0.02 µM) 38%; (0.078 µM) 51%; (0.313 µM) 64%; (1 µM) 81%; (1.25 µM) 79%; (5 µM) 91%.
As for “CCAGGTTGAGATAAAG (sugars k3 d1 m1 d8 k3, PS)”, for the setting “1 µM”, the target mRNA inhibition stood at 49%.
Regarding CCATAAAGCTGGATTG (sugars k3 d10 k3, PS), the target mRNA inhibition (1 µM) is 40%.
In turn, CCATAATCTGTGATTA (sugars k3 d10 k3, PS) yielded a target mRNA inhibition (1 µM) of 9%.
In the case of “CCATCTATCAGACTTC (sugars kkdddddddddkekek, PS)”, the target mRNA inhibition (1 µM) worked out at 52%.
Regarding CCATGGATCTAGAACA (sugars k3 d10 k3, PS), for the setting “1 µM”, the target mRNA inhibition turned out to be 15%.
CCATTTACATATGGTG (sugars k3 d10 k3, PS) gave a target mRNA inhibition (1 µM) of 28%.
Sequence CCCAAAAATGTCCTAG (sugars k3 d10 k3, PS) yielded a target mRNA inhibition (1 µM) of 18%.
Still for that read-out and setting: then CCCAAGCTACCTCCAA (sugars k3 d10 k3, PS), with 15%.
Turning to CCCAAGGCCTGAAGTT (sugars k3 d10 k3, PS), the target mRNA inhibition (1 µM) turned out to be 61%.
On the same count and under the same terms, then CCCAATTATGAATCTG (sugars k3 d10 k3, PS), with 62%; and CCCTTTATGTCTTTGG (sugars k3 d10 k3, PS), with 35%.
Still for that read-out and setting: the figure for CCGAAAAAAGTGGAGG (sugars k3 d10 k3, PS) is 31%; for CCGTTATAAGTTTCAT (sugars k3 d10 k3, PS) it is 54%; for CCTAAACAAACACTAT (sugars k3 d10 k3, PS) it is 8%.
Still for that read-out and setting: then CCTACCAAGAGGGTTT (sugars k3 d10 k3, PS), with 34%.
CCTAGATTCTACACTA (sugars k3 d10 k3, PS) yielded a target mRNA inhibition (1 µM) of 14%.
The same measure, in the same setting: then CCTAGGATGTTGACCT (sugars k3 d10 k3, PS), with 3%; and CCTAGGGAGGAGGTAC (sugars k3 d10 k3, PS), with 34%; and CCTATATACATCCAAG (sugars k3 d10 k3, PS), with 53%.

For the origin of these results see the OligoGym collection.
